Values quoted from earlier work, collected in patent US7825135B2, “Heteroaryl piperidine glycine transporter inhibitors” (Merck Sharp & Dohme Limited, priority 2004, dated 2010).

Legend:
[1] = system: NMDA receptor; settings: rat; blockade of GlyT1
[2] = mice
[3] = high doses, oral, add-on to standard neuroleptic therapy
[4] = schizophrenia patients poorly responsive to antipsychotic drugs

CN(CCC(Oc1ccc(-c2ccccc2)cc1)c1ccc(F)cc1)CC(=O)O (stereo not shown) [NFPS]
effect on NMDA receptor activity and NMDA receptor-dependent long-term potentiation [1]: potentiates NMDA receptor activity and NMDA receptor-dependent long-term potentiation | effect on pre-pulse inhibition (sensory gating) [2]: enhance pre-pulse inhibition

NCC(=O)O [glycine]
effect on symptoms of schizophrenia patients [3]: improvement of the symptoms

CNCC(=O)O [sarcosine]
effect on positive, negative and cognitive symptoms [4]: beneficial effect
